“And” between values parts separate entries of the source, which are not always exact repeats. Equal values may be shown once.
How the values were obtained:
Test in all cases: radiometric filter-binding kinase assay, Kinase HotSpot
Conditions in all cases: compound 0.5 µM; ATP 10 µM
HIPK2 (human) = HIPK2 (human) (UniProt Q9H2X6)
BRSK1 (human) = BRSK1 (human) (UniProt Q8TDC3)
CAMK1 (human) = CAMK1 (human) (UniProt Q14012)
MARK3 (human) = MARK3 (human) (UniProt P27448)
DAPK2 (human) = DAPK2 (human) (UniProt Q9UIK4)
ROCK1 (human) = ROCK1 (human) (UniProt Q13464)
EPHB4 (human) = EPHB4 (human) (UniProt P54760)
HIPK3 (human) = HIPK3 (human) (UniProt Q9H422)
LYN (human) = LYN (human) (UniProt P07948)
MAPK9 (human) = MAPK9 (human) (UniProt P45984)
Sequence of MAPK9 (human) (P45984 whole entry, looked up): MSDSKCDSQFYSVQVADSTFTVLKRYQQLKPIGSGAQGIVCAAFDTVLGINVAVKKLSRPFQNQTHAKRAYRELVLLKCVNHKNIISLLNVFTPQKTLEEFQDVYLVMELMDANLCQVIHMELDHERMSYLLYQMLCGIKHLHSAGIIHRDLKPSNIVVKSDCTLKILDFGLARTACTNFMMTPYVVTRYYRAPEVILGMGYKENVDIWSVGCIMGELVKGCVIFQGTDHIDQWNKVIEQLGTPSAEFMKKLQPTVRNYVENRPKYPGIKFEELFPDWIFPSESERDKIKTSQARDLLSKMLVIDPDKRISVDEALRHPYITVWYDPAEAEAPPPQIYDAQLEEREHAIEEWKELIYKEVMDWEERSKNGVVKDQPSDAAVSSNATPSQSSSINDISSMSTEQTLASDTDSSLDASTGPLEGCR

NEK11 (human) = NEK11 (human) (UniProt Q8NG66)
Sequence of NEK11 (human) (Q8NG66 whole entry, looked up): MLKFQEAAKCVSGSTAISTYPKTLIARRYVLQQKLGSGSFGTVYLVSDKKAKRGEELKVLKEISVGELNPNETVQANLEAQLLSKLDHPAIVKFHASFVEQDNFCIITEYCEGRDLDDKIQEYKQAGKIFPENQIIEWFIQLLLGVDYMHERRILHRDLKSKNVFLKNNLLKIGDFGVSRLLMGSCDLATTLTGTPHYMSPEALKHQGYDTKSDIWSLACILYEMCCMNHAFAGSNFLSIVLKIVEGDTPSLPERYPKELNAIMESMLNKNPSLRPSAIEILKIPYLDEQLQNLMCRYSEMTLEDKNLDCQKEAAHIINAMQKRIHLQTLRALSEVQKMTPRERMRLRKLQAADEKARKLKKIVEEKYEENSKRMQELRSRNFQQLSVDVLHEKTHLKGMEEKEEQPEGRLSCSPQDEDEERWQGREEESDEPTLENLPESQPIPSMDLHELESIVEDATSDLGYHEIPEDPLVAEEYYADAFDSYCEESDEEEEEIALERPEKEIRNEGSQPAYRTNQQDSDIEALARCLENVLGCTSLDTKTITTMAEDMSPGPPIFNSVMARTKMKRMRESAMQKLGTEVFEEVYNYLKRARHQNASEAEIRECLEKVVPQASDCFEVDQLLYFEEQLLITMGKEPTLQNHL

STK10 (human) = STK10 (human) (UniProt O94804)
Sequence of STK10 (human) (O94804 whole entry, looked up): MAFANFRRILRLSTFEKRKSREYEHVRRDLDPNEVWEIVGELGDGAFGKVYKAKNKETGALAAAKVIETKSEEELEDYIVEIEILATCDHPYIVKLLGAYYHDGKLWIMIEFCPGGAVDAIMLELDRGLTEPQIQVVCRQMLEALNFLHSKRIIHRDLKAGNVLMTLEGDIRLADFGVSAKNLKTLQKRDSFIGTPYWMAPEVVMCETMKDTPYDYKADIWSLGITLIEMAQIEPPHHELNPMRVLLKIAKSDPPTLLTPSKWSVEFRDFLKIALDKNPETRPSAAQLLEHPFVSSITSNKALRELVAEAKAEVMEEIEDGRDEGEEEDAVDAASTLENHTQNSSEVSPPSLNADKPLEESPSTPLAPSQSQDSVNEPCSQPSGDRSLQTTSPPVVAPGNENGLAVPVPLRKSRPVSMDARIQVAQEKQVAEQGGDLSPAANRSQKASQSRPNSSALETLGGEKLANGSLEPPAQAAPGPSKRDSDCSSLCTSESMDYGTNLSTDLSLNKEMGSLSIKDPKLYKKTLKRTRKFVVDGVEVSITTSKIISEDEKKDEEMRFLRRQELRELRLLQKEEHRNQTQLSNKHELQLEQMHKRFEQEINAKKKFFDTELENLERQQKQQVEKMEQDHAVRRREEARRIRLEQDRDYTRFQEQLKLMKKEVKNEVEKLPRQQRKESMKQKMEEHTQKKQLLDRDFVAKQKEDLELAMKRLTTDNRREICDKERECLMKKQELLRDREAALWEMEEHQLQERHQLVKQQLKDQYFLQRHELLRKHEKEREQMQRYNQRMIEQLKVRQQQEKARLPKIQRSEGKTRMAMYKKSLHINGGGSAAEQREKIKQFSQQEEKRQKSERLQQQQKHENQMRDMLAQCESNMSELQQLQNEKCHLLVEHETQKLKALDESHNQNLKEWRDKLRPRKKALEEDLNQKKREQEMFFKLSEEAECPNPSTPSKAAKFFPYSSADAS

EPHA2 (human) = EPHA2 (human) (UniProt P29317)
CDK6 CCND1 (human) = CDK6 CCND1 (human) (UniProt Q00534+P24385)
NEK7 (human) = NEK7 (human) (UniProt Q8TDX7)
Sequence of NEK7 (human) (Q8TDX7 whole entry, looked up): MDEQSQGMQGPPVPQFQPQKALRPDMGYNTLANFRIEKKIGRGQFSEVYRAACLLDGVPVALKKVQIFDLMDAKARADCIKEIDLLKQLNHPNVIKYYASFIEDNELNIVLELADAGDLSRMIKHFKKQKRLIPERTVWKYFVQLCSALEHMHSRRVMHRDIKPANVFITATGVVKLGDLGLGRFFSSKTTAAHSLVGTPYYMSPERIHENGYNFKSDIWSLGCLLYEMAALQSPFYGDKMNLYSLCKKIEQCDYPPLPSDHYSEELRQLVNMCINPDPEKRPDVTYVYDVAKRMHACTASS

EPHA3 (human) = EPHA3 (human) (UniProt P29320)
CAMK2D (human) = CAMK2D (human) (UniProt Q13557)
TBK1 (human) = TBK1 (human) (UniProt Q9UHD2)
EPHA7 (human) = EPHA7 (human) (UniProt Q15375)
CAMK1G (human) = CAMK1G (human) (UniProt Q96NX5)
Sequence of CAMK1G (human) (Q96NX5 whole entry, looked up): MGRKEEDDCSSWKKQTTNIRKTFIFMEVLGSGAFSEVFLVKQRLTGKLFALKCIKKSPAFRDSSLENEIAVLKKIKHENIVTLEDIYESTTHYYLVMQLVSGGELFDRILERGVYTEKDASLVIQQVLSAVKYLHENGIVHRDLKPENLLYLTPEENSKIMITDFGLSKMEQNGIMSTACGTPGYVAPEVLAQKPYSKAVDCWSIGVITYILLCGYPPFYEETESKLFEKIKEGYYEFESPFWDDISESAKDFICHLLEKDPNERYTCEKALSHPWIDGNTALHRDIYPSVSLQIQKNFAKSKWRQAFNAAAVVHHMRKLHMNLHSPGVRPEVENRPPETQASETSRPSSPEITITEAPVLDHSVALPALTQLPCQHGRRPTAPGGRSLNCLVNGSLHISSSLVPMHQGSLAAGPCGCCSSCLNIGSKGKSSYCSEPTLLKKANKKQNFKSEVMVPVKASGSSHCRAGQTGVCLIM

CSNK1G3 (human) = CSNK1G3 (human) (UniProt Q9Y6M4)
Sequence of CSNK1G3 (human) (Q9Y6M4 whole entry, looked up): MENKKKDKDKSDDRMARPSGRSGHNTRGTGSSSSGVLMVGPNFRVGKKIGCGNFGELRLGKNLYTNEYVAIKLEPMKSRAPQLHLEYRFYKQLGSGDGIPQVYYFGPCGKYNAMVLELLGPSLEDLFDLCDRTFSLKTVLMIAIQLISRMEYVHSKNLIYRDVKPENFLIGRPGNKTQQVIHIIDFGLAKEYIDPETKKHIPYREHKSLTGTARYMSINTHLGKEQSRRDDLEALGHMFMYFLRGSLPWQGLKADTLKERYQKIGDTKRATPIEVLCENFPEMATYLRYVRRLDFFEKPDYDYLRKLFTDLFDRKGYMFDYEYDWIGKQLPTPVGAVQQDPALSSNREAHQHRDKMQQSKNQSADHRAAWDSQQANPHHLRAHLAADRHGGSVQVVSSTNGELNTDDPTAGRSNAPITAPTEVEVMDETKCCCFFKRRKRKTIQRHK

EPHB1 (human) = EPHB1 (human) (UniProt P54762)
ACVR1 (human) = ACVR1 (human) (UniProt Q04771)
NEK6 (human) = NEK6 (human) (UniProt Q9HC98)
Sequence of NEK6 (human) (Q9HC98 whole entry, looked up): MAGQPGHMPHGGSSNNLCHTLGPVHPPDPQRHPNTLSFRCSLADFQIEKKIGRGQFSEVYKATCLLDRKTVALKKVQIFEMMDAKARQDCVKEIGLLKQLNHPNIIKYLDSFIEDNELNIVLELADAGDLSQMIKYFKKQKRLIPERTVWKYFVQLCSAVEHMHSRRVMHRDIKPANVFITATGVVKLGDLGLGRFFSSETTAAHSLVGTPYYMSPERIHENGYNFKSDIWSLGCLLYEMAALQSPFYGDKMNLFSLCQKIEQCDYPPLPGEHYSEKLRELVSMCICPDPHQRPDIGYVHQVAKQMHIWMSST

EPHA1 (human) = EPHA1 (human) (UniProt P21709)
PRKD3 (human) = PRKD3 (human) (UniProt O94806)
WNK3 (human) = WNK3 (human) (UniProt Q9BYP7)
GRK7 (human) = GRK7 (human) (UniProt Q8WTQ7)
Sequence of GRK7 (human) (Q8WTQ7 whole entry, looked up): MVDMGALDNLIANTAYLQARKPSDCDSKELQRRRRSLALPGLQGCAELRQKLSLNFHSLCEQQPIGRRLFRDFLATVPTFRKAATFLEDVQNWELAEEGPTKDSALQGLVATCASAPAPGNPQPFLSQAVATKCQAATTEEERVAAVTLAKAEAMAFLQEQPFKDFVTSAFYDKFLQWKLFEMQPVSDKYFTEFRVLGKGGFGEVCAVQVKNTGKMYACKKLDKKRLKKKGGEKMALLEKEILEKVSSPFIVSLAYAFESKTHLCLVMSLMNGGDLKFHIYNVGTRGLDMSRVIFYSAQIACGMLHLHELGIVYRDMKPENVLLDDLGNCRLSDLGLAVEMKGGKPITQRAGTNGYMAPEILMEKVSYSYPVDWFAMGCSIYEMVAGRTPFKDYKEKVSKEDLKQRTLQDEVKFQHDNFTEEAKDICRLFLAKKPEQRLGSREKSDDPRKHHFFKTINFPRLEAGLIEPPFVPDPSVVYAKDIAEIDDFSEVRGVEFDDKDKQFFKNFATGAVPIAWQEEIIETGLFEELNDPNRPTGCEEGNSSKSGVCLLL

GRK6 (human) = GRK6 (human) (UniProt P43250)
DAPK1 (human) = DAPK1 (human) (UniProt P53355)
FES (human) = FES (human) (UniProt P07332)
Sequence of FES (human) (P07332 whole entry, looked up): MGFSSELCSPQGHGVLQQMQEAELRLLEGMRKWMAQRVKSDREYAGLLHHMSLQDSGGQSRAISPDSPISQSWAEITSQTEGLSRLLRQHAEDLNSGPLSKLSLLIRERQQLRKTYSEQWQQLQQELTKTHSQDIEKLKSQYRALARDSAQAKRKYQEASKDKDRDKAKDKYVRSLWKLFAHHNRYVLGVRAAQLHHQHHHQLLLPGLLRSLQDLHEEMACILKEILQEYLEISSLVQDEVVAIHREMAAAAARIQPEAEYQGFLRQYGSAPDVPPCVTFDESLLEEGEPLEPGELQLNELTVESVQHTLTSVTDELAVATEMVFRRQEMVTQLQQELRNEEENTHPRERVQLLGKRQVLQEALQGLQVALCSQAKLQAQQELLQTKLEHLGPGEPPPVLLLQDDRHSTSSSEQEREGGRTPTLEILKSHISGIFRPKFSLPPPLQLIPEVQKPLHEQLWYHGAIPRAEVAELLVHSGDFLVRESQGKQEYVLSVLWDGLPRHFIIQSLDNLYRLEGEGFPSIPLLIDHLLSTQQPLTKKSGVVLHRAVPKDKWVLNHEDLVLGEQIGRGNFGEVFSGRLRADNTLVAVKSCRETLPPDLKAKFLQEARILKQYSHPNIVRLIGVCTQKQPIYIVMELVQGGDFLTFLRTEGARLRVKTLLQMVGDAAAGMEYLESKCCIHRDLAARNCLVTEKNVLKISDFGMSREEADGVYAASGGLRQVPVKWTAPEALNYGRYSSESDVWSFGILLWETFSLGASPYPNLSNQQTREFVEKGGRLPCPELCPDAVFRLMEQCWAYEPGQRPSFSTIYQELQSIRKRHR

SIK2 (human) = SIK2 (human) (UniProt Q9H0K1)
MAP3K7 TAB1 (human) = MAP3K7 TAB1 (human) (UniProt O43318+Q15750)
MAPK10 (human) = MAPK10 (human) (UniProt P53779)
DMPK (human) = DMPK (human) (UniProt Q09013)
IRAK4 (human) = IRAK4 (human) (UniProt Q9NWZ3)
CLK2 (human) = CLK2 (human) (UniProt P49760)
STK39 (human) = STK39 (human) (UniProt Q9UEW8)
PRKX (human) = PRKX (human) (UniProt P51817)
NLK (human) = NLK (human) (UniProt Q9UBE8)
NEK9 (human) = NEK9 (human) (UniProt Q8TD19)
PRKCG (human) = PRKCG (human) (UniProt P05129)

For `CN(C)C[C@H]1CCn2c(c(C3=C(c4cn(C)c5ccccc45)C(=O)NC3=O)c3ccccc32)C1`, the residual activity (HIPK2 (human)) was 94.1%, the residual activity (BRSK1 (human)) was 101% and the residual activity (CAMK1 (human)) was 105%. The residual activity (MARK3 (human)) was 92.4%, the residual activity (DAPK2 (human)) was 90.4% and the residual activity (ROCK1 (human)) was 106%. The residual activity (EPHB4 (human)) was 90.9%, the residual activity (HIPK3 (human)) was 111% and the residual activity (LYN (human)) was 100% and 98.3%. The residual activity (MAPK9 (human)) was 105%, the residual activity (NEK11 (human)) was 74.1% and the residual activity (STK10 (human)) was 26.6%. It also gave a residual activity (EPHA2 (human)) of 102%, a residual activity (CDK6 CCND1 (human)) of 70.5% and a residual activity (NEK7 (human)) of 100%. It also gave a residual activity (EPHA3 (human)) of 99.2%, a residual activity (CAMK2D (human)) of 82.4% and a residual activity (TBK1 (human)) of 91.4%. For the same compound, the residual activity (EPHA7 (human)) was 96.9%, the residual activity (CAMK1G (human)) was 95.8% and the residual activity (CSNK1G3 (human)) was 104%. For the same compound, the residual activity (EPHB1 (human)) was 106%, the residual activity (ACVR1 (human)) was 93.3% and the residual activity (NEK6 (human)) was 94.6%. For the same compound, the residual activity (EPHA1 (human)) was 100%, the residual activity (PRKD3 (human)) was 93.6% and the residual activity (WNK3 (human)) was 100%. The residual activity (GRK7 (human)) was 40%, the residual activity (GRK6 (human)) was 66.4% and the residual activity (DAPK1 (human)) was 94.1%. For the same compound, the residual activity (FES (human)) was 102%, the residual activity (SIK2 (human)) was 88.8% and the residual activity (MAP3K7 TAB1 (human)) was 95.3%. It also gave a residual activity (MAPK10 (human)) of 101%, a residual activity (DMPK (human)) of 106% and a residual activity (IRAK4 (human)) of 107%. For the same compound, the residual activity (CLK2 (human)) was 85.9%, the residual activity (STK39 (human)) was 102% and the residual activity (PRKX (human)) was 97.8%. The residual activity (NLK (human)) was 101%, the residual activity (NEK9 (human)) was 97.6% and the residual activity (PRKCG (human)) was 6.93%.
`CC(C)c1nn(-c2c(Cl)cccc2Cl)c2nc(Cc3ccc(OCCO)cc3)nc(O)c12` was tested, and the residual activity (HIPK2 (human)) was 104%, the residual activity (BRSK1 (human)) was 91.3% and the residual activity (CAMK1 (human)) was 85.1%. It also gave a residual activity (MARK3 (human)) of 92.2%, a residual activity (DAPK2 (human)) of 88.3% and a residual activity (ROCK1 (human)) of 101%. For the same compound, the residual activity (EPHB4 (human)) was 90.7%, the residual activity (HIPK3 (human)) was 99% and the residual activity (LYN (human)) was 102% and 92.7%. The residual activity (MAPK9 (human)) was 96.5%, the residual activity (NEK11 (human)) was 109% and the residual activity (STK10 (human)) was 96.6%. For the same compound, the residual activity (EPHA2 (human)) was 100%, the residual activity (CDK6 CCND1 (human)) was 19.8% and the residual activity (NEK7 (human)) was 94%. It also gave a residual activity (EPHA3 (human)) of 86.2%, a residual activity (CAMK2D (human)) of 85.7% and a residual activity (TBK1 (human)) of 97.7%. For the same compound, the residual activity (EPHA7 (human)) was 97.9%, the residual activity (CAMK1G (human)) was 100% and the residual activity (CSNK1G3 (human)) was 95.7%. It also gave a residual activity (EPHB1 (human)) of 91.3%, a residual activity (ACVR1 (human)) of 94.7% and a residual activity (NEK6 (human)) of 105%. It also gave a residual activity (EPHA1 (human)) of 95%, a residual activity (PRKD3 (human)) of 92.3% and a residual activity (WNK3 (human)) of 96.7%. For the same compound, the residual activity (GRK7 (human)) was 106%, the residual activity (GRK6 (human)) was 101% and the residual activity (DAPK1 (human)) was 99.5%. For the same compound, the residual activity (FES (human)) was 97.1%, the residual activity (SIK2 (human)) was 116% and the residual activity (MAP3K7 TAB1 (human)) was 98.5%. The residual activity (MAPK10 (human)) was 109%, the residual activity (DMPK (human)) was 99.3% and the residual activity (IRAK4 (human)) was 112%. For the same compound, the residual activity (CLK2 (human)) was 44%, the residual activity (STK39 (human)) was 99.9% and the residual activity (PRKX (human)) was 96.3%. It also gave a residual activity (NLK (human)) of 97.6%, a residual activity (NEK9 (human)) of 97.3% and a residual activity (PRKCG (human)) of 81.1%.
With `CC(=O)O/N=C1\C(=C2\C(=O)Nc3cc(Br)ccc32)Nc2ccccc21` the residual activity (HIPK2 (human)) was 99.1%, the residual activity (BRSK1 (human)) was 43.5% and the residual activity (CAMK1 (human)) was 102%. It also gave a residual activity (MARK3 (human)) of 85.4%, a residual activity (DAPK2 (human)) of 68.7% and a residual activity (ROCK1 (human)) of 94.6%. For the same compound, the residual activity (EPHB4 (human)) was 92.2%, the residual activity (HIPK3 (human)) was 76.7% and the residual activity (LYN (human)) was 28.1% and 52.4%. The residual activity (MAPK9 (human)) was 90.5%, the residual activity (NEK11 (human)) was 110% and the residual activity (STK10 (human)) was 99.3%. For the same compound, the residual activity (EPHA2 (human)) was 95.8%, the residual activity (CDK6 CCND1 (human)) was 53.2% and the residual activity (NEK7 (human)) was 91.9%. The residual activity (EPHA3 (human)) was 88.2%, the residual activity (CAMK2D (human)) was 53.8% and the residual activity (TBK1 (human)) was 78.5%. The residual activity (EPHA7 (human)) was 97.9%, the residual activity (CAMK1G (human)) was 101% and the residual activity (CSNK1G3 (human)) was 101%. It also gave a residual activity (EPHB1 (human)) of 99.9%, a residual activity (ACVR1 (human)) of 102% and a residual activity (NEK6 (human)) of 100%. For the same compound, the residual activity (EPHA1 (human)) was 83.2%, the residual activity (PRKD3 (human)) was 84.9% and the residual activity (WNK3 (human)) was 93%. The residual activity (GRK7 (human)) was 99.5%, the residual activity (GRK6 (human)) was 88.5% and the residual activity (DAPK1 (human)) was 86.8%. The residual activity (FES (human)) was 115%, the residual activity (SIK2 (human)) was 54.6% and the residual activity (MAP3K7 TAB1 (human)) was 97.4%. The residual activity (MAPK10 (human)) was 83%, the residual activity (DMPK (human)) was 95.4% and the residual activity (IRAK4 (human)) was 94.1%. The residual activity (CLK2 (human)) was 96.8%, the residual activity (STK39 (human)) was 105% and the residual activity (PRKX (human)) was 99.9%. For the same compound, the residual activity (NLK (human)) was 106%, the residual activity (NEK9 (human)) was 86.7% and the residual activity (PRKCG (human)) was 103%.

— the kinase profiling compilation of Christmann-Franck et al. (2016)
